In US20060264460A1 (Wyeth, priority 2005, published 2006):

What follows are molecules tested against T1, human Cot/Tpl2 kinase (Homo sapiens, UniProt P41279) (assay: Tpl2/Cot kinase assay: GST-MEK1 phosphorylation detected by ELISA (DELFIA Eu)). Settings: 0.4 nM Tpl2, 35 nM GST-MEK1, 50 uM ATP, 1 h at 30° C.
T1 construct: human Cot/Tpl2 kinase construct encoding residues 30-398; 6His (N); made in house; host or cells: Sf9 insect cells, baculovirus system (BD Biosciences)
T1 sequence (P41279 30-398): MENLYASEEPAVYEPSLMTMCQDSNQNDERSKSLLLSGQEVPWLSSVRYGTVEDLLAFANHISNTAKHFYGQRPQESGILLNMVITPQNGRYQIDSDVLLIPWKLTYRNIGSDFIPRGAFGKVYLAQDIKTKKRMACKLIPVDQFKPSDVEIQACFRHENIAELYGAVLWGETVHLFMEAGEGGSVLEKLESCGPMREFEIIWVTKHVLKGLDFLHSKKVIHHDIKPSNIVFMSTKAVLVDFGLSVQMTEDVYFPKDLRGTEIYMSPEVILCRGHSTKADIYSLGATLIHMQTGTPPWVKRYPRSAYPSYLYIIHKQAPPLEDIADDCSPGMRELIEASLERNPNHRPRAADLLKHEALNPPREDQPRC
Type: biochemical
Outline: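 His-tagged human Tpl2 from Sf9 cells, Ni-affinity and size-exclusion purified (monomer). 0.4 nM Tpl2 with 35 nM GST-MEK1, 50 uM ATP, MOPS pH 7.2, 1% DMSO, 1 h at 30° C; EDTA stop. MEK1 Ser217/221 phosphorylation detected by anti-phospho-MEK1 and Eu-labelled secondary ELISA; IC50 fitted.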
CCc1nc(CNc2cc(Cl)c3ncc(C#N)c(Nc4ccc(F)c(Cl)c4)c3c2)c(C)[nH]1 [Example 190, 8-chloro-4-(3-chloro-4-fluorophenylamino)-6-((2-ethyl-5-methyl-1H-imidazol-4-yl)methylamino)quinoline-3-carbonitrile] was tested, and the IC50 was 320 nM.
Molecule CC(C)(C)OC(=O)N1CCC[C@H]1CNc1ccc2ncc(C#N)c(Nc3ccc(F)c(Cl)c3)c2c1 [Example 40, 2-{[4-(3-Chloro-4-fluoro-phenylamino)-3-cyano-quinolin-6-ylamino]-methyl}-L-pyrrolidine-1-carboxylic acid tert-butyl ester] has an IC50 of 2400 nM.
Work on N#Cc1cnc2c(Cl)cc(NCCn3ccnn3)cc2c1Nc1ccc(F)c(Cl)c1 [Example 211, 8-chloro-4-[(3-chloro-4-fluorophenyl)amino]-6-{[2-(1H-1,2,3-triazol-1-yl)ethyl]amino}quinoline-3-carbonitrile] yielded an IC50 of 350 nM.
N#Cc1cnc2c(C(F)(F)F)cc(NCc3cncs3)cc2c1Nc1ccc(F)c(Cl)c1 [Example 239, 4-[(3-chloro-4-fluorophenyl)amino]-6-[(1,3-thiazol-5-ylmethyl)amino]-8-(trifluoromethyl)quinoline-3-carbonitrile] showed an IC50 of 780 nM.
For CC(C)(C)OC(=O)COc1ccc(CNc2ccc3ncc(C#N)c(Nc4ccc(F)c(Cl)c4)c3c2)cc1Br [Example 26, (2-Bromo-4-{[4-(3-chloro-4-fluoro-phenylamino)-3-cyano-quinolin-6-ylamino]-methyl}-phenoxy)-acetic acid tert-butyl ester], the IC50 was over 40000 nM.
N#Cc1cnc2c(Br)cc(NCc3cn(CC(O)CN4CCOCC4)nn3)cc2c1Nc1ccc(F)c(Cl)c1 (centres unmarked) [Example 319, 8-bromo-4-[(3-chloro-4-fluorophenyl)amino]-6-({[1-(2-hydroxy-3-morpholin-4-ylpropyl)-1H-1,2,3-triazol-4-yl]methyl}amino)quinoline-3-carbonitrile] gave an IC50 of 210 nM.
With CCc1nc(C)c(CNc2ccc3ncc(C#N)c(Nc4ccc(F)c(Cl)c4)c3c2)[nH]1 [Example 23, 4-(3-Chloro-4-fluoro-phenylamino)-6-[(2-ethyl-5-methyl-3H-imidazol-4-ylmethyl)-amino]-quinoline-3-carbonitrile] the IC50 was 640 nM.
With CN1CCC[C@H]1CCn1cc(CNc2cc(Br)c3ncc(C#N)c(Nc4ccc(F)c(Cl)c4)c3c2)nn1 [Example 324, (S)-8-bromo-4-(3-chloro-4-fluorophenylamino)-6-((1-(2-(1-methylpyrrolidin-2-yl)ethyl)-1H-1,2,3-triazol-4-yl)methylamino)quinoline-3-carbonitrile] the IC50 was 50 nM.
N#Cc1cnc2cc(OCCCN3CCOCC3)c(NCc3cnc[nH]3)cc2c1Nc1ccc(F)c(Cl)c1 [Example 159, 6-((1H-imidazol-5-yl)methylamino)-4-(3-chloro-4-fluorophenylamino)-7-(3-morpholinopropoxy)quinoline-3-carbonitrile] showed an IC50 of 9200 nM.
N#Cc1cnc2c(Cl)cc(NCc3cn(C4CCC(=O)CC4)nn3)cc2c1Nc1ccc(F)c(Cl)c1 [Example 333, 8-chloro-4-[(3-chloro-4-fluorophenyl)amino]-6-({[1-(4-oxocyclohexyl)-1H-1,2,3-triazol-4-yl]methyl}amino)quinoline-3-carbonitrile] was tested, and the IC50 was 1.1 nM.
N#Cc1cnc2c(Br)cc(NCc3cnc[nH]3)cc2c1NC1CCCC1 [Example 96, 6-((1H-imidazol-5-yl)methylamino)-8-bromo-4-(cyclopentylamino)quinoline-3-carbonitrile] gave an IC50 of 440 nM.
In the case of Cn1cnc(CNc2cc(Cl)c3ncc(C#N)c(Nc4ccc(F)c(Cl)c4)c3c2)c1 [Example 201, 8-chloro-4-[(3-chloro-4-fluorophenyl)amino]-6-{[(1-methyl-1H-imidazol-4-yl)methyl]amino}quinoline-3-carbonitrile], the IC50 is reported as 9.1 nM.
Work on CS(=O)(=O)c1cccc(CNc2cc(Cl)c3ncc(C#N)c(Nc4ccc(F)c(Cl)c4)c3c2)c1 [Example 185, 6-(3-(methylsulfonyl)benzylamino)-8-chloro-4-(3-chloro-4-fluorophenylamino)quinoline-3-carbonitrile] yielded an IC50 of 47 nM.
Work on CC(C)(C)Nc1c(C#N)cnc2c(Br)cc(NCc3cnc[nH]3)cc12 [Example 98, 6-((1H-imidazol-5-yl)methylamino)-8-bromo-4-(tert-butylamino)quinoline-3-carbonitrile] yielded an IC50 of 1500 nM.
With N#Cc1cnc2c(Cl)cc(NCCn3ccnc3)cc2c1Nc1ccc(F)c(Cl)c1 [Example 212, 8-chloro-4-[(3-chloro-4-fluorophenyl)amino]-6-{[2-(1H-imidazol-1-yl)ethyl]amino}quinoline-3-carbonitrile] the IC50 was 400 nM.

Same assay, conditions: Table 2; Tpl2/Cot kinase, GST-MEK1 substrate, 50 uM ATP
Molecule N#Cc1cnc2c(Cl)cc(NCC(CO)c3ccncc3)cc2c1Nc1ccc(F)c(Cl)c1 (centres unmarked) [Example 637] has an IC50 of over 3000 nM.
Molecule Cc1cc(CNc2cc(Cl)c3ncc(C#N)c(Nc4ccc(F)c(Cl)c4)c3c2)n(C)n1 [Example 430] has an IC50 of 120 nM.
In the case of N#Cc1cnc2c(Br)cc(NCC(=O)O)cc2c1Nc1ccc(F)c(Cl)c1 [Example 630], the IC50 is reported as 140 nM.
Work on CN1CCC(Cn2cc(CN(C)c3cc(Br)c4ncc(C#N)c(Nc5ccc(F)c(Cl)c5)c4c3)nn2)CC1 [Example 505] yielded an IC50 of 290 nM.
N#Cc1cnc2c(Cl)cc(NCc3cn(Cc4cccnc4)cn3)cc2c1Nc1ccc(F)c(Cl)c1 [Example 553] gave an IC50 of 0.7 nM.
CC(C)(C)OC(=O)N1CCCC(Cn2cc(CNc3cc(Cl)c4ncc(C#N)c(Nc5ccc(F)c(Cl)c5)c4c3)nn2)C1 (centres unmarked) [Example 541] gave an IC50 of 250 nM.
For N#Cc1c(Nc2ccc(F)c(Cl)c2)c2cc(NCc3cccc[n+]3[O-])ccc2[nH]c1=O [Example 422], the IC50 was over 40000 nM.
In the case of CC(=O)Nc1ccc(-n2cc(CNc3cc(Cl)c4ncc(C#N)c(Nc5ccc(F)c(Cl)c5)c4c3)nn2)cc1 [Example 634], the IC50 is reported as 35 nM.
Work on CN(C)CCc1nc[nH]c1CNc1cc(Br)c2ncc(C#N)c(Nc3ccc(F)c(Cl)c3)c2c1 [Example 571] yielded an IC50 of 240 nM.
In the case of N#Cc1cnc2c(Cl)cc(NCc3cn(CCN4CCOCC4)cn3)cc2c1Nc1ccc(F)c(Cl)c1 [Example 490], the IC50 is reported as 33 nM.
Molecule CN(C)Cc1cc(NCCN2CCOCC2)cc2c(Nc3cccc(Br)c3)c(C#N)cnc12 [Example 387] has an IC50 of over 40000 nM.
C[Si](C)(C)c1n[nH]nc1CNc1cc(Br)c2ncc(C#N)c(Nc3ccc(F)c(Cl)c3)c2c1 [Example 435] gave an IC50 of 21 nM.
For N#Cc1cnc2ccc(NCc3ccc(=O)n(CCN4CCOCC4)c3)cc2c1Nc1ccc(F)c(F)c1 [Example 345], the IC50 was 1700 nM.
Molecule Cn1nc(C(C)(C)C)cc1Nc1c(C#N)cnc2ccc(N)cc12 [Example 425] has an IC50 of over 40000 nM.
Molecule N#Cc1cnc2c(CO)cc(NCc3cnc[nH]3)cc2c1Nc1ccc(F)c(Cl)c1 [Example 464] has an IC50 of 570 nM.
In the case of N#Cc1cnc2c(Cl)cc(NCc3cn(CCN4CCCC4)nn3)cc2c1Nc1ccc(F)c(Cl)c1 [Example 515], the IC50 is reported as 40 nM.
N#Cc1cnc2ccc(NCCN3CCOCC3)cc2c1Nc1cccc(C(F)(F)F)c1 [Example 342] gave an IC50 of over 10000 nM.
In the case of CC(C)(C)OC(=O)N1CCN(CCCn2cc(CNc3cc(Br)c4ncc(C#N)c(Nc5ccc(F)c(Cl)c5)c4c3)nn2)CC1 [Example 591], the IC50 is reported as 1300 nM.

Same assay, conditions: Tpl2/Cot kinase, GST-MEK1 substrate, 50 uM ATP
N#Cc1cnc2c(Cl)cc(NCCNS(=O)(=O)c3cccnc3)cc2c1Nc1ccc(F)c(Cl)c1 [Example 855] showed an IC50 of over 3000 nM.
N#Cc1cnc2c(Cl)cc(NCCNS(=O)(=O)c3ccccc3)cc2c1Nc1ccc(F)c(Cl)c1 [Example 854] showed an IC50 of 1960 nM.
CC(C)N1CCC(Nc2ccc3ncc(C#N)c(Nc4ccc(F)c(Cl)c4)c3c2)CC1 [Example 658] showed an IC50 of 25500 nM.
CN(C)C(=O)CCn1cc(CNc2cc(Cl)c3ncc(C#N)c(Nc4ccc(F)c(Cl)c4)c3c2)nn1 [Example 789] showed an IC50 of 10 nM.
CC(C)(C)OC(=O)N1CCC(CCn2cc(CN(Cc3cn(CCC4CCN(C(=O)OC(C)(C)C)CC4)nn3)c3cc(Br)c4ncc(C#N)c(Nc5ccc(F)c(Cl)c5)c4c3)nn2)CC1 [Example 693] gave an IC50 of over 3000 nM.
For N#Cc1cnc2c(Br)cc(NCc3cn(C4CCCC4)cn3)cc2c1Nc1ccc(F)c(Cl)c1 [Example 799], the IC50 was 230 nM.
In the case of N#Cc1cnc2c(Cl)cc(NCc3cn(Cc4ccccn4)cn3)cc2c1Nc1ccc(F)c(Cl)c1 [Example 786], the IC50 is reported as 41 nM.
CC(C)(C)OC(=O)N1CCC[C@H]1Cn1cc(CNc2cc(Cl)c3ncc(C#N)c(Nc4ccc(F)c(Cl)c4)c3c2)nn1 [Example 888] gave an IC50 of 200 nM.
With CC(=O)N1CCC(CNc2cc(Cl)c3ncc(C#N)c(Nc4ccc(F)c(Cl)c4)c3c2)CC1 [Example 866] the IC50 was 260 nM.
For CN1CCC(CNc2cc(Cl)c3ncc(C#N)c(Nc4ccc(F)c(Cl)c4)c3c2)CC1 [Example 849], the IC50 was 1910 nM.

Same assay, conditions: Tpl2/Cot kinase, GST-MEK1 substrate, 50 uM ATP, 1 h at 30° C.; Table 2
N#Cc1cnc2c(Cl)cc(NCc3cn(C4CCC(NC5CCCC5)CC4)nn3)cc2c1Nc1ccc(F)c(Cl)c1 (centres unmarked) [Example 1038] showed an IC50 of 17 nM.
For CCNC(=O)N1C2CCC1CC(n1cc(CNc3cc(Cl)c4ncc(C#N)c(Nc5ccc(F)c(Cl)c5)c4c3)nn1)C2 (centres unmarked) [Example 1052], the IC50 was 23 nM.
For CC(C)N1CCC(n2cc(CNc3cc(Cl)c4ncc(C#N)c(NC5CCOCC5)c4c3)nn2)CC1 [Example 1000], the IC50 was 480 nM.
N#Cc1cnc2c(Cl)cc(NCc3cn(C4CCN(CC(O)CO)CC4)nn3)cc2c1Nc1ccc(F)c(Cl)c1 (centres unmarked) [Example 994] showed an IC50 of 6.8 nM.
With CN(C)C(=O)N1CCN(CCn2cc(CNc3cc(Cl)c4ncc(C#N)c(Nc5ccc(F)c(Cl)c5)c4c3)nn2)CC1 [Example 961] the IC50 was 31 nM.
CC(C)(C)OC(=O)N1C2CCC1CC(n1cc(CNc3cc(Cl)c4ncc(C#N)c(Nc5ccc(F)c(Cl)c5)c4c3)nn1)C2 (centres unmarked) [Example 1046] was tested, and the IC50 was 300 nM.
With N#Cc1cnc2c(Cl)cc(N(Cc3cn(C4CCN(CC5CC5)CC4)nn3)CC3CC3)cc2c1Nc1ccc(F)c(Cl)c1 [Example 1028] the IC50 was 410 nM.
